# Experimental data taken from patent US20240173432A1, “Compositions and Methods for Treatment of Myotonic Dystrophy Type 1 with CRISPR/SluCas9” (Vertex Pharmaceuticals Incorporated, priority 2021, published 2024).
# System: 3′ UTR of the human DMPK gene
# Experiment: Single-cut screening: indel editing efficiency by Sanger sequencing and ICE analysis in primary DM1 patient myoblasts
# Assay type: cell-based
# Conditions: single SluCas9 sgRNA RNP in primary DM1 patient myoblasts; Sanger sequencing and ICE analysis; vehicle-treated samples
# Summary of the method: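 Indels were estimated by ICE from Sanger chromatograms of PCR amplicons covering the DMPK 3′ UTR wild-type allele, using only vehicle-treated samples; sgRNAs with R2<0.9 are flagged. Samples came from primary DM1 patient myoblasts (2 × 10^5) harvested 72 h after nucleofection with 30 pmol SluCas9 and 90 pmol single sgRNA RNP.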
row,Substance,Indel efficiency [%]
1,TCCGAGAGCAGCGCAAGTGAGG (guide RNA; chemistry not fully specified) [SluD51],33
2,"TCCGGGCCCGCCCCCTAGCggc (guide RNA; as printed in the source, key not given here) [SluU36]",24
3,TCGCGCCAGACGCTCCCCAGAG (guide RNA; chemistry not fully specified) [SluD35],0
4,TCGGCCAGGCTGAGGCCCTGAC (guide RNA; chemistry not fully specified) [SluD05],22
5,TCTTGTGCATGACGCCCTGCTC (guide RNA; chemistry not fully specified) [SluD31],63
6,TGCACTGAGACCCCGACATTCC (guide RNA; chemistry not fully specified) [SluD79],2
7,TGCGCTGCTCTCGGAGCCCCAG (guide RNA; chemistry not fully specified) [SluD54],26
8,TGCTTTTGCCAAACCCGCTTTT (guide RNA; chemistry not fully specified) [SluD39],39
9,TGGAAGACTGAGTGCCCGGGGC (guide RNA; chemistry not fully specified) [SluU14],52
10,"TGGAGGATGGAACACGGACGGC (listed as DNA, chemistry not fully specified) [SluD18]",75
11,TGGGCGGAGACCCACGCTCGGA (guide RNA; chemistry not fully specified) [SluU25],38
12,"TGTCTTCGACTCCGGGGCCCCG (listed as DNA, chemistry not fully specified) [SluU06]",81
13,TGTGAACTGGCAGGCGGTGGGC (guide RNA; chemistry not fully specified) [SluU17],32
14,TGTGATCCGGGCCCGCCCCCTA (guide RNA; chemistry not fully specified) [SluU33],26
15,TTATTCGCGAGGGTCGGGGGTG (guide RNA; chemistry not fully specified) [SluD89],0
16,TTTATTCGCGAGGGTCGGGGGT (guide RNA; chemistry not fully specified) [SluD91],33
17,TTTGCACTTTGCGAACCAACGA (guide RNA; chemistry not fully specified) [SluD29],35
18,TTTTATTCGCGAGGGTCGGGGG (guide RNA; chemistry not fully specified) [SluD92],30

# Same assay, conditions: single-cut; SluCas9 RNP; vehicle-treated samples; 72 hrs post nucleofection; wild-type allele
row,Substance,indel efficiency (Sanger sequencing and ICE analysis)
1,"TGGAGGATGGAACACGGACGGC (listed as DNA, chemistry not fully specified) [SluD18]",high editing IN4DEL efficiency
2,"TGTCTTCGACTCCGGGGCCCCG (listed as DNA, chemistry not fully specified) [SluU06]",high editing IN4DEL efficiency

# System: CUG foci in primary DM1 patient myoblasts
# Experiment: Single-cut screening: FISH staining of CUG RNA foci
# Assay type: cell-based, human
# Conditions: single sgRNA; primary DM1 patient myoblasts; DNA-PKi treated
# Summary of the method: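 CD56-purified primary DM1 patient myoblasts nucleofected with SluCas9:sgRNA RNP (30:90 pmol, single-cut), then DMSO or 3 μM DNA-PK inhibitor for 48 h. At 72 h post-nucleofection, cells fixed and stained for CUG foci with Cy3-PNA(CAG)5 probe (1 ng/μL, 80 °C), co-stained for MBNL1 and Hoechst, imaged by high-content confocal microscopy.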
row,Substance,% of CUG foci free nuclei (DNA-PKi) [%]
1,TCCGAGAGCAGCGCAAGTGAGG (guide RNA; chemistry not fully specified) [SluD51],28.86
2,"TCCGGGCCCGCCCCCTAGCggc (guide RNA; as printed in the source, key not given here) [SluU36]",40.62
3,TCGCGCCAGACGCTCCCCAGAG (guide RNA; chemistry not fully specified) [SluD35],12.47
4,TCGGCCAGGCTGAGGCCCTGAC (guide RNA; chemistry not fully specified) [SluD05],26.99
5,TCTTGTGCATGACGCCCTGCTC (guide RNA; chemistry not fully specified) [SluD31],23.95
6,TGCACTGAGACCCCGACATTCC (guide RNA; chemistry not fully specified) [SluD79],25.61
7,TGCGCTGCTCTCGGAGCCCCAG (guide RNA; chemistry not fully specified) [SluD54],33.12
8,TGCTTTTGCCAAACCCGCTTTT (guide RNA; chemistry not fully specified) [SluD39],31.63
9,TGGAAGACTGAGTGCCCGGGGC (guide RNA; chemistry not fully specified) [SluU14],58.84
10,"TGGAGGATGGAACACGGACGGC (listed as DNA, chemistry not fully specified) [SluD18]",31.47
11,TGGGCGGAGACCCACGCTCGGA (guide RNA; chemistry not fully specified) [SluU25],47.96
12,"TGTCTTCGACTCCGGGGCCCCG (listed as DNA, chemistry not fully specified) [SluU06]",67.15
13,TGTGAACTGGCAGGCGGTGGGC (guide RNA; chemistry not fully specified) [SluU17],67.55
14,TGTGATCCGGGCCCGCCCCCTA (guide RNA; chemistry not fully specified) [SluU33],57.35
15,TTATTCGCGAGGGTCGGGGGTG (guide RNA; chemistry not fully specified) [SluD89],11.37
16,TTTATTCGCGAGGGTCGGGGGT (guide RNA; chemistry not fully specified) [SluD91],21.28
17,TTTGCACTTTGCGAACCAACGA (guide RNA; chemistry not fully specified) [SluD29],28.37
18,TTTTATTCGCGAGGGTCGGGGG (guide RNA; chemistry not fully specified) [SluD92],24.03

# Same assay, conditions: single sgRNA; primary DM1 patient myoblasts; vehicle
row,Substance,% of CUG foci free nuclei (Vehicle) [%]
1,TCCGAGAGCAGCGCAAGTGAGG (guide RNA; chemistry not fully specified) [SluD51],14.34
2,"TCCGGGCCCGCCCCCTAGCggc (guide RNA; as printed in the source, key not given here) [SluU36]",11.72
3,TCGCGCCAGACGCTCCCCAGAG (guide RNA; chemistry not fully specified) [SluD35],6.61
4,TCGGCCAGGCTGAGGCCCTGAC (guide RNA; chemistry not fully specified) [SluD05],26.95
5,TCTTGTGCATGACGCCCTGCTC (guide RNA; chemistry not fully specified) [SluD31],14.17
6,TGCACTGAGACCCCGACATTCC (guide RNA; chemistry not fully specified) [SluD79],11.48
7,TGCGCTGCTCTCGGAGCCCCAG (guide RNA; chemistry not fully specified) [SluD54],10.7
8,TGCTTTTGCCAAACCCGCTTTT (guide RNA; chemistry not fully specified) [SluD39],9.15
9,TGGAAGACTGAGTGCCCGGGGC (guide RNA; chemistry not fully specified) [SluU14],29.12
10,"TGGAGGATGGAACACGGACGGC (listed as DNA, chemistry not fully specified) [SluD18]",15.38
11,TGGGCGGAGACCCACGCTCGGA (guide RNA; chemistry not fully specified) [SluU25],23.15
12,"TGTCTTCGACTCCGGGGCCCCG (listed as DNA, chemistry not fully specified) [SluU06]",25.49
13,TGTGAACTGGCAGGCGGTGGGC (guide RNA; chemistry not fully specified) [SluU17],21.96
14,TGTGATCCGGGCCCGCCCCCTA (guide RNA; chemistry not fully specified) [SluU33],24.67
15,TTATTCGCGAGGGTCGGGGGTG (guide RNA; chemistry not fully specified) [SluD89],10.23
16,TTTATTCGCGAGGGTCGGGGGT (guide RNA; chemistry not fully specified) [SluD91],22.42
17,TTTGCACTTTGCGAACCAACGA (guide RNA; chemistry not fully specified) [SluD29],7.97
18,TTTTATTCGCGAGGGTCGGGGG (guide RNA; chemistry not fully specified) [SluD92],24.08

# System: CAG foci in primary DM1 patient myoblasts
# Experiment: Single-cut screening: CAG foci staining
# Assay type: cell-based, human
# Conditions: single sgRNA, DNA-PKi treated
# Summary of the method: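 Primary DM1 patient myoblasts were PFA-fixed and hybridized with […] (1 ng/μL, 15 min at 80° C) in 30% formamide/2×SSC, followed by anti-MBNL1 immunostaining and Hoechst counterstain. CAG RNA foci were quantified by high-content confocal imaging after single-cut SuCas9 sgRNA editing.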
row,Substance,% of CAG foci positive nuclei (DNA-PKi) [%]
1,TCCGAGAGCAGCGCAAGTGAGG (guide RNA; chemistry not fully specified) [SluD51],2.13
2,"TCCGGGCCCGCCCCCTAGCggc (guide RNA; as printed in the source, key not given here) [SluU36]",1.96
3,TCGCGCCAGACGCTCCCCAGAG (guide RNA; chemistry not fully specified) [SluD35],1.13
4,TCGGCCAGGCTGAGGCCCTGAC (guide RNA; chemistry not fully specified) [SluD05],1.1
5,TCTTGTGCATGACGCCCTGCTC (guide RNA; chemistry not fully specified) [SluD31],3.21
6,TGCACTGAGACCCCGACATTCC (guide RNA; chemistry not fully specified) [SluD79],1.79
7,TGCGCTGCTCTCGGAGCCCCAG (guide RNA; chemistry not fully specified) [SluD54],2.85
8,TGCTTTTGCCAAACCCGCTTTT (guide RNA; chemistry not fully specified) [SluD39],1.68
9,TGGAAGACTGAGTGCCCGGGGC (guide RNA; chemistry not fully specified) [SluU14],1.63
10,"TGGAGGATGGAACACGGACGGC (listed as DNA, chemistry not fully specified) [SluD18]",1.55
11,TGGGCGGAGACCCACGCTCGGA (guide RNA; chemistry not fully specified) [SluU25],1.29
12,"TGTCTTCGACTCCGGGGCCCCG (listed as DNA, chemistry not fully specified) [SluU06]",1.1
13,TGTGAACTGGCAGGCGGTGGGC (guide RNA; chemistry not fully specified) [SluU17],1.28
14,TGTGATCCGGGCCCGCCCCCTA (guide RNA; chemistry not fully specified) [SluU33],1.3
15,TTATTCGCGAGGGTCGGGGGTG (guide RNA; chemistry not fully specified) [SluD89],2.54
16,TTTATTCGCGAGGGTCGGGGGT (guide RNA; chemistry not fully specified) [SluD91],4.23
17,TTTGCACTTTGCGAACCAACGA (guide RNA; chemistry not fully specified) [SluD29],2.38
18,TTTTATTCGCGAGGGTCGGGGG (guide RNA; chemistry not fully specified) [SluD92],3.02

# Same assay, conditions: single sgRNA, vehicle
row,Substance,% of CAG foci positive nuclei (Vehicle) [%]
1,TCCGAGAGCAGCGCAAGTGAGG (guide RNA; chemistry not fully specified) [SluD51],2.15
2,"TCCGGGCCCGCCCCCTAGCggc (guide RNA; as printed in the source, key not given here) [SluU36]",1.05
3,TCGCGCCAGACGCTCCCCAGAG (guide RNA; chemistry not fully specified) [SluD35],1.04
4,TCGGCCAGGCTGAGGCCCTGAC (guide RNA; chemistry not fully specified) [SluD05],1.42
5,TCTTGTGCATGACGCCCTGCTC (guide RNA; chemistry not fully specified) [SluD31],3.06
6,TGCACTGAGACCCCGACATTCC (guide RNA; chemistry not fully specified) [SluD79],0.82
7,TGCGCTGCTCTCGGAGCCCCAG (guide RNA; chemistry not fully specified) [SluD54],2.11
8,TGCTTTTGCCAAACCCGCTTTT (guide RNA; chemistry not fully specified) [SluD39],1.95
9,TGGAAGACTGAGTGCCCGGGGC (guide RNA; chemistry not fully specified) [SluU14],1.02
10,"TGGAGGATGGAACACGGACGGC (listed as DNA, chemistry not fully specified) [SluD18]",2.71
11,TGGGCGGAGACCCACGCTCGGA (guide RNA; chemistry not fully specified) [SluU25],0.92
12,"TGTCTTCGACTCCGGGGCCCCG (listed as DNA, chemistry not fully specified) [SluU06]",1.01
13,TGTGAACTGGCAGGCGGTGGGC (guide RNA; chemistry not fully specified) [SluU17],1.5
14,TGTGATCCGGGCCCGCCCCCTA (guide RNA; chemistry not fully specified) [SluU33],1.14
15,TTATTCGCGAGGGTCGGGGGTG (guide RNA; chemistry not fully specified) [SluD89],0.61
16,TTTATTCGCGAGGGTCGGGGGT (guide RNA; chemistry not fully specified) [SluD91],1
17,TTTGCACTTTGCGAACCAACGA (guide RNA; chemistry not fully specified) [SluD29],1.72
18,TTTTATTCGCGAGGGTCGGGGG (guide RNA; chemistry not fully specified) [SluD92],1.4
